Measurements taken from the supplement of paper PMC10307832.

Compound: CCN1CCC(CC1)N2C=C(N=N2)CNC3=CC4=C(C(=CN=C4C(=C3)Cl)C#N)NC5=CC(=C(C=C5)F)Cl [KIN001-266] + COc1cc2c(Oc3ccc(NC(=O)C4(C(=O)Nc5ccc(F)cc5)CC4)cc3F)ccnc2cc1OCCCN1CCOCC1 [Foretinib] (partner 0.25 µM)
Assay: relative viability (nuclei count vs DMSO), 5 days (fraction); higher = more cells survive
In short: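 Nuclei were stained with Hoechst during a one-step fixation (final 0.05% Triton X-100, 1% formaldehyde, 1 ug/ml Hoechst) carried out 5 days after dosing, then counted on 4× images. The cells, lung cancer lines in 1536-well plates, had been dosed by pin tool the day after seeding with one drug alone or a fixed anchor-drug dose plus five library-drug doses (not always all listed) in √10 steps. Relative viability is the nuclei count in treated wells divided by that in vehicle wells, and each value is the median of duplicate plates.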

Cell Line | relative viability (first compound 0.08 µM) | relative viability (first compound 0.253 µM) | relative viability (first compound 0.8 µM) | relative viability (first compound 2.53 µM) | relative viability (first compound 8 µM)
LCLC-97TM1 | 0.983 | 0.914 | 0.903 | 0.888 | 0.909
HARA | 0.814 | 0.884 | 0.878 | 0.858 | 0.821
HCC-78 | 0.529 | 0.588 |  | 0.575 | 0.527
NCI-H1666 | 0.954 | 0.95 | 0.938 | 0.92 | 0.892
NCI-H2347 | 1.04 | 0.622 | 0.746 | 0.844 | 0.632
NCI-H838 | 1.03 | 1.09 | 1.06 | 0.928 | 0.717
NCI-H2023 | 0.837 | 0.959 | 1.02 | 0.919 | 0.556
201T | 1.07 | 1.11 | 1.13 | 1.12 | 1.14
NCI-H1915 | 1.14 | 1.06 | 1.07 | 1.13 | 1.11
NCI-H2009 | 1.15 | 1.16 | 1.28 | 1.23 | 1.03
BEN | 0.708 | 0.88 | 0.755 | 0.407 | 0.691
PC-14 | 0.907 | 1.04 | 0.743 | 0.979 | 0.503
SK-MES-1 | 0.845 | 0.884 | 0.828 | 0.885 | 0.828
NCI-H727 | 0.883 | 0.855 | 0.821 | 0.888 | 0.649
NCI-H1355 | 0.922 | 0.956 | 0.924 | 0.918 | 0.88
NCI-H1975 | 0.972 | 0.96 | 0.966 | 1.05 | 1.04
LK-2 | 1.12 | 1.31 | 1.2 | 1.03 | 1.28
NCI-H661 | 1.02 | 1 | 1.03 | 0.954 | 0.946
NCI-H2342 | 1.09 | 1.04 | 1.17 | 1.15 | 1.07
HCC-366 | 0.961 | 0.955 | 0.916 | 0.905 | 0.851
HOP-62 | 0.96 | 1.11 | 1.15 | 1.13 | 1.13
NCI-H1944 | 0.898 | 0.806 | 0.886 | 0.911 | 0.882
SW 1573 | 0.989 | 0.787 | 1.02 | 0.915 | 0.855
LU99A | 0.84 | 0.842 | 0.754 | 0.735 | 0.535
NCI-H647 | 1.22 | 1.22 | 1.36 | 1.16 | 0.97

Cell Line | relative viability (first compound 0.08 µM) | relative viability (first compound 0.253 µM) | relative viability (first compound 0.8 µM) | relative viability (first compound 2.53 µM) | relative viability (first compound 8 µM)
A-427 | 1.06 | 1.07 | 0.983 | 0.992 | 0.971
COR-L 105 | 0.795 | 1.09 | 0.92 | 0.915 | 0.758
NCI-H441 | 1.04 | 0.889 | 1.02 | 0.781 | 0.689
NCI-H2126 | 1.12 | 1.18 | 1.15 | 1.26 | 1.15
EBC-1 | 0.0963 | 0.1 | 0.105 | 0.128 | 0.117
NCI-H460 | 1.01 | 0.973 | 1.02 | 0.936 | 0.941
SK-LU-1 | 0.844 | 0.824 | 0.84 | 0.814 | 0.486
NCI-H322M | 0.942 | 0.96 | 1.03 | 0.962 | 0.864
EKVX | 0.858 | 0.744 | 0.642 | 0.781 | 0.624
NCI-H1734 | 0.951 | 0.801 | 0.704 | 0.813 | 0.798
SW 900 | 1.08 | 0.987 | 0.908 | 0.835 | 0.697
ABC-1 | 1.02 | 1.12 | 1.1 | 1.08 | 0.873
NCI-H520 | 0.67 | 0.668 | 0.69 | 0.487 | 0.638
EPLC-272H | 0.777 | 0.763 | 0.728 | 0.636 | 0.208
UMC-11 | 1.08 | 1.07 | 1.12 | 0.945 | 0.684
NCI-H1993 | 0.86 | 0.777 | 0.758 | 0.749 | 0.675
NCI-H596 | 0.963 | 0.986 | 0.901 | 0.775 | 0.737
NCI-H1793 | 0.598 | 0.812 | 0.718 | 0.883 | 0.705
NCI-H1563 | 0.925 | 0.862 | 0.941 | 0.985 | 0.904
NCI-H1395 | 0.984 | 0.93 | 0.952 | 0.939 | 0.914
NCI-H1299 | 1.06 | 1.1 | 1.05 | 0.994 | 0.964
HCC-827 | 1.04 | 1.09 | 0.944 | 0.907 | 0.809
ChaGo-K-1 | 0.904 | 0.989 | 0.756 | 0.793 | 0.871
NCI-H2228 | 0.76 | 0.733 | 0.82 | 0.89 | 0.602
NCI-H2170 | 0.984 | 1.03 | 1.01 | 0.987 | 0.976

Cell Line | relative viability (first compound 0.08 µM) | relative viability (first compound 0.253 µM) | relative viability (first compound 0.8 µM) | relative viability (first compound 2.53 µM) | relative viability (first compound 8 µM)
EMC-BAC-2 | 1.13 | 1.09 | 0.972 | 1.03 | 1
A549 | 0.95 | 0.854 | 1.04 | 0.87 | 0.926
NCI-H23 | 0.924 | 0.83 | 0.975 | 0.995 | 0.862
RERF-LC-KJ | 0.882 | 0.873 | 0.837 | 0.837 | 0.757
NCI-H358 | 0.728 | 0.734 | 0.629 | 0.631 | 0.397
LC-2-ad | 0.964 | 1 | 0.904 | 0.972 | 0.787
HCC-15 | 0.913 | 0.964 | 0.886 | 0.817 | 0.707
NCI-H2405 | 1.06 | 1.02 | 1.02 | 1.05 | 0.713
LXF-289 | 0.936 | 0.945 | 0.963 | 0.997 | 1.07
CAL-12T | 1.21 | 1.01 | 1.02 | 0.974 | 1.11
COR-L23 | 0.905 | 0.944 | 0.869 | 0.933 | 0.776
NCI-H1755 | 0.96 | 0.913 | 0.894 | 0.862 | 0.83
NCI-H1437 | 1.21 | 1.28 | 1.26 | 1.35 | 1.04
NCI-H2085 | 1.06 | 1.01 | 0.731 | 0.939 | 0.954
IA-LM | 1.03 | 1.17 | 1.41 | 1.19 | 0.891
H3255 | 0.801 | 0.862 | 0.797 | 0.957 | 0.725
NCI-H650 | 1.07 | 1.02 | 0.98 | 1.04 | 0.988
LCLC-103H | 0.837 | 0.716 | 0.987 | 0.772 | 0.726
LOU-NH91 | 0.943 | 0.924 | 0.623 | 0.804 | 0.724
NCI-H1650 | 1.25 | 0.951 | 0.947 | 0.773 | 0.476
NCI-H3122 | 0.98 | 0.961 | 0.94 | 0.918 | 0.914
PC-3 [JPC-3] | 1.02 | 1.04 | 0.983 | 0.972 | 0.889
Calu-6 | 0.921 | 0.861 | 0.925 | 0.917 | 0.609
NCI-H1651 | 0.805 | 0.71 | 0.774 | 0.757 | 0.731
NCI-H2087 | 1.22 | 1.17 | 1.09 | 1.15 | 0.962
